# Tests used:
# [1] = Oral administration of M2 / L-arginine to test subjects: side-effects and tolerance; type: in vivo, human; settings: L-arginine taken alone on an empty stomach
# Description: The subject was placed on L-Arginine M2 therapy.
# [2] = Oral administration of M2 to test subjects: muscle mass and bodyfat; type: in vivo, human
# Experimental: The above composition (identified as M2) was administered to test subjects. Those tests and the results are described in Example 2.
smiles,measurement,setting,value
"N=C(N)NCCCC(N)C(=O)O [L-Arginine, 2-amino-5-guanidinovaleric acid]",disadvantages (side effects) from ingestion,[1],"headache, diarrhea, flatulence, depletion of electrolytes"
same,Therapeutic dose for this subject,[2]; subject (1),15 grams L-Arginine per day
same,dose required for Growth Hormone response out of pituitary gland,"[2]; subject (2), totally empty stomach: 3+ hours",15-20 grams
